# Results taken from patent US7452505B2, “Method for analyzing blood test sample and dry analytical element and analytical kit utilizing the method” (Fujifilm Corporation, priority 2002, dated 2008).
# Test system: blood platelet-rich plasma
# Assay: Evaluation of LDH activity of blood platelet-rich plasma samples with surfactant (JSCC transferable method)
# Type: cell-based, human
# Details: sample with 0.6% of surfactant, sample without surfactant taken as 100; 37° C.
# From the text: (2) Evaluation of LDH Activity
# In Table 2, “LDH activity” means the activity of the test sample with 0.6% of surfactant, assuming that that of the test sample without surfactant to be 100.
row,Molecule,LDH Activity
1,POE (5) oleylether [EMALEX 505],295
2,POE (20) oleylether [EMALEX 520],297
3,POE (10) perfluoroalkyl [Example F-142D],104
4,POE (6) perfluoroalkyl ethoxylate [Example F-1405],102
5,"C[C@H](CCC(=O)O)[C@H]1CC[C@H]2[C@@H]3CC[C@@H]4C[C@H](O)CC[C@]4(C)[C@H]3C[C@H](O)[C@]12C [deoxycholic acid, reference compound]",199
6,POE (10) octylether [Nissan Nonion],694
7,POE (12) oleylether [EMALEX 512],307
8,sodium α-olefin sufonate [NIKKOL OS-14],212
